Test results: patent US20110212909A1, “Use of Ginsenoside Compound K in the Preparation of a Medicament for the Prevention and Treatment of Atherosclerosis” (priority 2008, published 2011)
Marks after values point to notes of the source that are not given here.

How the values were obtained:
[1] = system: AS plaque in apo E−/− mouse aorta; assay: Morphology index image analysis of AS plaque at aortic root (HE and MASSON staining); assay type: in vivo; conditions: apo E−/− mice, 15 weeks
Procedure: (§1) 80 healthy clean grade C57BL/6J apo E^−/^− mice of 10 weeks old, wherein male and female mice were fifty-fifty, weight 20-22 g, were breed and divided into individual cage in sterile laminar flow rack, allowing mice to freely drink water and get food. Mice were raised for 30 weeks by “Western Diet” (routine mouse feed +0.15% cholesterol +21% fat) high fat feed (^60cobalt sterilization radiation treatment), with raising conditions being SPF grade, room temperature maintained at 24° C., relative humidity of 50%, and lighting time of 7: 30-19: 30. Animal house was sterilized by ultraviolet lamp once every two days, in order to maintain sterile environment of laminar flow rack (establishment of animal model of atherosclerosis refers to reference: Barish G D, Atkins A R, Downes M, Olson P, Chong L W, Nelson M, Zou Y H, Hwang H S, Kang H J, Curtiss L, Evans R M, Lee C H. PPARδ regulates multiple proinflammatory pathways to suppress atherosclerosis. Proc Natl Acad Sci, 2008, 105 (11): 4271-4276.).
(§2) 5 mice of apo E^−/^− mice raised for 15 weeks were randomly selected and sacrificed, root of aorta of which was taken, and replication condition in AS model was observed by HE staining. The remaining mice were randomly divided into 5 groups as follows (n=15):
(§3) A. model group: vehicle; B. ginsenoside compound K low dose group: ginsenoside compound K 12.5 mg/kg/day; C. ginsenoside compound K middle dose group: ginsenoside compound K 25.0 mg/kg/day; D. ginsenoside compound K high dose group: ginsenoside compound K 50.0 mg/kg/day; E. simvastatin control group: simvastatin 10.0 mg/kg/day.
(§4) Above drugs were firstly solved in DMSO, then suspended in 0.5% carboxymethylcellulose solution, mixed homogeneously, and then were administered via gavage, once a day. Mice were weighted once a week, and ingestion amounts were recorded, and drug doses were adjusted according to weight, interfering for 15 weeks. All the animal were sacrificed in 30th week.
Tissues of apo E^−/^− mice were sliced for AS plaque pathology: blood of eye sockets venous plexus of apo E−/− mice was sampled before the mice was sacrificed by cervical dislocation, and aorta was fixed by converse infusion of physiological saline comprising 4% paraformaldehyde into left ventricle, and then whole aorta was cut off from root of aorta to terminal end of abdomen aorta. Root of aorta was taken, and embedded routinely by paraffin, and slices of thickness of 5 μm were continuously cut off from root of aorta, and were subjected separately to HE staining, and MASSON staining, and then were utilized for AS plaque morphological index analysis of aortic valve cross section.
Pathological staining: […]sequent 2 pieces of slices were picked up from each incisal surface of sequent paraffin slices of aorta root per mouse, and were separately subjected to HE staining, and MASSON staining, and were observed under light microscope. […]remaining aorta was stained by Sudan IV, and was observed under light microscope.
• blood fat assay: TC, TG, HDL-C, and LDL-C concentrations in serum were determined by applying Olympus Au2700 fully automatic biochemical appearance. • serum inflammatory markers assay: hs-CRP and sCD40L concentrations were determined by applying double antibody sandwich ELISA, in accordance with ELISA kit operating instruction (hs-CRP ELISA kit bought from Herrenberg company, Germany; sCD40L ELISA kit bought from Bender Medsystems company, Austria). • real-time quantitative PCR analysis was carried out on expression of CD36, perilipin, ABCA1, LXRα, MMP-9 and NF-κ B mRNA in apo E^−/^− mouse aorta (a reference method: Zhang Yiguan, Li Xiaohui, Fan Jishan, Zhang Haigang, Li Shuhui, Liao Wenqiang, Pang Yan, Jia Yi. Total panax notoginsenosides suppress atherosclerosis formation in rats by means of antiinflammatory and blood fat regulating action. Progress in Modern Biomedicine. […]

apo E−/− mouse = assay: Blood fat assay in serum of apo E−/− mice on Western Diet; assay type: in vivo; conditions: for HDL-C in serum / LDL-C in serum / TC in serum / TC-HDL/HDL / TG in serum: 15 weeks
Procedure: as §1, §2, §3, §4
apo E^−/^− mouse serum sample: apo E^−/^− mice were interfered by drug for 15 weeks, then were fasted for 12 hours before sampling. Before being sacrificed, mice were anesthetized by 0.5-1.0 mL 1% Pentobarbital via abdominal cavity, and under sterile condition, 1.5 mL blood form their eye sockets venous plexus was sampled, and centrifugated at 2500 r/min for 10 minutes, and then serum was separated, and frozen and stored at −80° C., for determining blood fat concentrations and inflammatory markers in serum.
• blood fat assay: TC, TG, HDL-C, and LDL-C concentrations in serum were determined by applying Olympus Au2700 fully automatic biochemical appearance. • serum inflammatory markers assay: hs-CRP and sCD40L concentrations were determined by applying double antibody sandwich ELISA, in accordance with ELISA kit operating instruction (hs-CRP ELISA kit bought from Herrenberg company, Germany; sCD40L ELISA kit bought from Bender Medsystems company, Austria). • real-time quantitative PCR analysis was carried out on expression of CD36, perilipin, ABCA1, LXRα, MMP-9 and NF-κ B mRNA in apo E^−/^− mouse aorta (a reference method: Zhang Yiguan, Li Xiaohui, Fan Jishan, Zhang Haigang, Li Shuhui, Liao Wenqiang, Pang Yan, Jia Yi. Total panax notoginsenosides suppress atherosclerosis formation in rats by means of antiinflammatory and blood fat regulating action. Progress in Modern Biomedicine. 2007, 27 (11): 1601-1607)0 • morphology index image analysis: When slices were HE stained, under X40 fold ordinary light microscope, artery atherosclerosis plaque area of each incisal surface was determined by “Image Pro Plus 5.0” image analysis software. Plaque area (PA), vessel cross section area (CVA), lipid core area (LCA), and minimal fibrous cap thickness (mFCT) were measured, and corrected plaque area (plaque area/vessel cross section area, PA/CVA) and corrected lipid core area (lipid core area/plaque area, LCA/PA) were calculated, and average of 4 incisal surfaces was taken for each sample. […]

[2] = C-K high dose 50.0 mg/kg/day gavage
[3] = C-K middle dose 25.0 mg/kg/day gavage
[4] = simvastatin 10.0 mg/kg/day gavage

SMILES: CC(C)=CCC[C@](C)(OC1OC(CO)C(O)C(O)C1O)C1CC[C@]2(C)C1[C@H](O)CC1[C@@]3(C)CC[C@H](O)C(C)(C)C3CC[C@]12C (stereo partly drawn) [C-K, 20-O-β-D-glucopyranosyl 20-(S)-protopanaxadiol]
- CA (aortic root collagen area) [1, 2]: 0.69 ± 0.13^b mm^2
- CA/CVA (corrected collagen area) [1, 2]: 42.40 ± 6.74^b %
- CVA (vessel cross section area) [1, 2]: 1.62 ± 0.12 mm^2
- LCA (lipid core area) [1, 2]: 0.21 ± 0.03^b mm^2
- LCA/PA (corrected lipid core area) [1, 2]: 40.01 ± 1.94^b %
- PA (plaque area) [1, 2]: 0.52 ± 0.10^b mm^2
- PA/CVA (corrected plaque area) [1, 2]: 32.29 ± 6.29^b %
- mFCT (minimal fibrous cap thickness) [1, 2]: 30.65 ± 1.37^b μm
- CA (aortic root collagen area) ([1]; C-K low dose 12.5 mg/kg/day gavage, model 0.39 ± 0.13): 0.56 ± 0.14^b mm^2
- LCA (lipid core area) ([1]; C-K low dose 12.5 mg/kg/day gavage, model 0.44 ± 0.05): 0.32 ± 0.05^b mm^2
- PA (plaque area) ([1]; C-K low dose 12.5 mg/kg/day gavage, model 0.90 ± 0.12): 0.78 ± 0.13^a mm^2
- CVA (vessel cross section area) ([1]; C-K low dose 12.5 mg/kg/day gavage, model 1.70 ± 0.19): 1.68 ± 0.16 mm^2
- mFCT (minimal fibrous cap thickness) ([1]; C-K low dose 12.5 mg/kg/day gavage, model 20.40 ± 3.31): 28.48 ± 1.89^b μm
- CA/CVA (corrected collagen area) ([1]; C-K low dose 12.5 mg/kg/day gavage, model 22.60 ± 5.41): 33.33 ± 4.37^b %
- LCA/PA (corrected lipid core area) ([1]; C-K low dose 12.5 mg/kg/day gavage, model 48.28 ± 2.71): 41.03 ± 1.32^b %
- PA/CVA (corrected plaque area) ([1]; C-K low dose 12.5 mg/kg/day gavage, model 53.82 ± 10.02): 46.43 ± 7.38^a %
- CA (aortic root collagen area) [1, 3]: 0.62 ± 0.09^b mm^2
- CA/CVA (corrected collagen area) [1, 3]: 36.08 ± 4.82^b %
- CVA (vessel cross section area) [1, 3]: 1.71 ± 0.14 mm^2
- LCA (lipid core area) [1, 3]: 0.29 ± 0.05^b mm^2
- LCA/PA (corrected lipid core area) [1, 3]: 40.33 ± 1.18^b %
- PA (plaque area) [1, 3]: 0.72 ± 0.12^a mm^2
- PA/CVA (corrected plaque area) [1, 3]: 42.26 ± 8.35^a %
- mFCT (minimal fibrous cap thickness) [1, 3]: 30.44 ± 1.75^b μm
- action in regulating blood fat compared with simvastatin (apo E−/− mouse; C-K 12.5-50.0 mg/kg/day vs simvastatin 10.0 mg/kg/day): not as good as that of simvastatin
- HDL-C in serum (apo E−/− mouse; [2]): 4.42 ± 1.06^a mmol/L
- LDL-C in serum (apo E−/− mouse; [2]): 6.11 ± 1.18^a mmol/L
- TC in serum (apo E−/− mouse; [2]): 20.48 ± 4.34^b mmol/L
- TC-HDL/HDL (apo E−/− mouse; [2]): 3.63 ± 0.10^b
- TG in serum (apo E−/− mouse; [2]): 2.19 ± 0.51^b mmol/L
- TG in serum (apo E−/− mouse; C-K low dose 12.5 mg/kg/day gavage, model 2.65 ± 0.39): 2.32 ± 0.41^a mmol/L
- HDL-C in serum (apo E−/− mouse; C-K low dose 12.5 mg/kg/day gavage, model 3.79 ± 1.17): 4.08 ± 1.32^a mmol/L
- TC-HDL/HDL (apo E−/− mouse; C-K low dose 12.5 mg/kg/day gavage, model 5.24 ± 0.36): 4.34 ± 0.16^a
- LDL-C in serum (apo E−/− mouse; C-K low dose 12.5 mg/kg/day gavage, model 6.99 ± 1.09): 6.45 ± 1.30^a mmol/L
- TC in serum (apo E−/− mouse; C-K low dose 12.5 mg/kg/day gavage, model 23.59 ± 3.79): 21.79 ± 4.53^a mmol/L
- HDL-C in serum (apo E−/− mouse; [3]): 4.12 ± 1.15^a mmol/L
- LDL-C in serum (apo E−/− mouse; [3]): 6.34 ± 1.22^a mmol/L
- TC in serum (apo E−/− mouse; [3]): 21.29 ± 4.44^a mmol/L
- TC-HDL/HDL (apo E−/− mouse; [3]): 4.17 ± 0.13^b
- TG in serum (apo E−/− mouse; [3]): 2.28 ± 0.32^a mmol/L

SMILES: CCC(C)(C)C(=O)O[C@H]1C[C@@H](C)C=C2C=C[C@H](C)[C@H](CC[C@@H]3C[C@@H](O)CC(=O)O3)[C@H]21 [simvastatin, reference compound]
- CA (aortic root collagen area) [1, 4]: 0.57 ± 0.08^a mm^2
- CA/CVA (corrected collagen area) [1, 4]: 34.73 ± 4.49^b %
- CVA (vessel cross section area) [1, 4]: 1.65 ± 0.11 mm^2
- LCA (lipid core area) [1, 4]: 0.32 ± 0.04^b mm^2
- LCA/PA (corrected lipid core area) [1, 4]: 43.39 ± 4.01^b %
- PA (plaque area) [1, 4]: 0.74 ± 0.17 mm^2
- PA/CVA (corrected plaque area) [1, 4]: 44.70 ± 8.44^a %
- mFCT (minimal fibrous cap thickness) [1, 4]: 27.72 ± 2.30^b μm
- HDL-C in serum (apo E−/− mouse; [4]): 3.80 ± 1.12 mmol/L
- LDL-C in serum (apo E−/− mouse; [4]): 1.73 ± 1.36^b mmol/L
- TC in serum (apo E−/− mouse; [4]): 13.62 ± 4.49^b mmol/L
- TC-HDL/HDL (apo E−/− mouse; [4]): 2.58 ± 0.18^b
- TG in serum (apo E−/− mouse; [4]): 1.34 ± 0.46^b mmol/L
